Assay: xn = mol fraction of the nth substance listed

O=CN1CCOCC1 + Cc1cccc(C)c1
viscosity [mPa·s]
Conditions | 298.15 K | 303.15 K | 313.15 K | 323.15 K
101 kPa, x2 = 0.1 | 5.508 | 4.826 | 3.793 | 3.081
101 kPa, x2 = 0.2 | 4.047 | 3.589 | 2.886 | 2.4
101 kPa, x2 = 0.3 | 3.049 | 2.741 | 2.257 | 1.905
101 kPa, x2 = 0.4 | 2.34 | 2.132 | 1.778 | 1.522
101 kPa, x2 = 0.5 | 1.792 | 1.646 | 1.381 | 1.192
101 kPa, x2 = 0.6 | 1.38 | 1.267 | 1.076 | 0.9311
101 kPa, x2 = 0.7 | 1.082 | 1.002 | 0.8623 | 0.7574
101 kPa, x2 = 0.8 | 0.8664 | 0.8124 | 0.708 | 0.6298
101 kPa, x2 = 0.9 | 0.7069 | 0.6603 | 0.586 | 0.5286
101.3 kPa, x2 = 0.03245 | 7.014 | – | – | –
101.3 kPa, x2 = 0.06364 | 6.442 | – | – | –
101.3 kPa, x2 = 0.09907 | 5.89 | – | – | –
101.3 kPa, x2 = 0.1608 | 5.016 | – | – | –
101.3 kPa, x2 = 0.2806 | 3.707 | – | – | –
101.3 kPa, x2 = 0.3561 | 3.033 | – | – | –
101.3 kPa, x2 = 0.4744 | 2.278 | – | – | –
101.3 kPa, x2 = 0.5701 | 1.829 | – | – | –
101.3 kPa, x2 = 0.6556 | 1.511 | – | – | –
101.3 kPa, x2 = 0.6984 | 1.38 | – | – | –
101.3 kPa, x2 = 0.7819 | 1.159 | – | – | –
101.3 kPa, x2 = 0.876 | 0.961 | – | – | –
101.3 kPa, x2 = 0.9337 | 0.875 | – | – | –

CCC(=O)c1ccccc1 + CNC(C)=O
308.15 K, 101 kPa
Conditions | viscosity [mPa·s]
x1 = 0.06 | 2.972
x1 = 0.1269 | 2.778
x1 = 0.1862 | 2.61
x1 = 0.2778 | 2.38
x1 = 0.3654 | 2.19
x1 = 0.4649 | 2.005
x1 = 0.5709 | 1.828
x1 = 0.6929 | 1.648
x1 = 0.8315 | 1.485

CC(C)(C)C(=O)O + CCCN(CCC)CCC
viscosity [mPa·s], 101 kPa
Conditions | 293.15 K | 298.15 K | 303.15 K | 308.15 K | 313.15 K | 318.15 K | 323.15 K
x1 = 0.1 | 1.239 | 1.113 | 1.09 | 1.007 | 0.961 | – | –
x1 = 0.2 | 1.593 | 1.416 | 1.371 | 1.265 | 1.163 | 1.088 | 1.017
x1 = 0.3 | 1.998 | 1.897 | 1.631 | 1.619 | 1.474 | 1.375 | 1.285
x1 = 0.4 | 3.304 | 2.795 | 2.479 | 2.325 | 2.14 | 1.94 | 1.79
x1 = 0.5 | 5.525 | 4.857 | 3.946 | 3.56 | 3.069 | 2.62 | 2.72
x1 = 0.6 | 14.34 | 11.43 | 9.15 | 7.47 | 6.17 | 5 | 4.15
x1 = 0.7 | 41.75 | 29.64 | 21.72 | 16.62 | 12.77 | 10.24 | 8.33
x1 = 0.725 | 62.84 | 43.6 | 31.12 | 22.68 | 17.62 | 14.04 | 11.21
x1 = 0.75 | 69.2 | 52.11 | 39.98 | 28.77 | 21.17 | 17.53 | 13.24
x1 = 0.8 | 54.33 | 40.03 | 28.38 | 21.17 | 16.84 | 13.12 | 10.81
x1 = 0.9 | 15.35 | 11.96 | 9.46 | 7.88 | 6.57 | 5.51 | 4.73

NCc1ccccc1 + O
viscosity [mPa·s]
Conditions | 293.15 K | 303.15 K | 313.15 K | 323.15 K
100 kPa, x1 = 0.1 | – | 2.231 | 1.725 | 1.385
100 kPa, x1 = 0.2 | – | 3.098 | 2.324 | 1.793
100 kPa, x1 = 0.3 | – | 3.387 | 2.512 | 1.956
100 kPa, x1 = 0.4 | – | 3.323 | 2.51 | 1.93
100 kPa, x1 = 0.5 | – | 3.1 | 2.353 | 1.831
100 kPa, x1 = 0.6 | – | 2.669 | 2.064 | 1.648
100 kPa, x1 = 0.7 | – | 2.308 | 1.823 | 1.469
100 kPa, x1 = 0.8 | – | 1.957 | 1.591 | 1.309
100 kPa, x1 = 0.9 | – | 1.681 | 1.396 | 1.182
101 kPa, x1 = 0.1003 | 3.23 | 2.28 | 1.7 | 1.38
101 kPa, x1 = 0.2001 | 4.4 | 3.07 | 2.25 | 1.78
101 kPa, x1 = 0.3 | 4.8 | 3.37 | 2.48 | 1.93
101 kPa, x1 = 0.3997 | 4.63 | 3.3 | 2.46 | 1.91
101 kPa, x1 = 0.5002 | 4.16 | 3.05 | 2.28 | 1.79
101 kPa, x1 = 0.6 | 3.57 | 2.67 | 2.03 | 1.63
101 kPa, x1 = 0.7 | 2.95 | 2.28 | 1.78 | 1.47
101 kPa, x1 = 0.7999 | 2.48 | 1.94 | 1.55 | 1.3
101 kPa, x1 = 0.9 | 2.1 | 1.68 | 1.36 | 1.15

NCc1ccccc1 + CCCCN
viscosity [mPa·s], 100 kPa
Conditions | x2 = 0.1 | x2 = 0.2 | x2 = 0.3 | x2 = 0.4 | x2 = 0.5 | x2 = 0.6 | x2 = 0.7 | x2 = 0.8 | x2 = 0.9
303.15 K | 1.324 | 1.204 | 1.068 | 0.964 | 0.847 | 0.748 | 0.654 | 0.578 | 0.513
313.15 K | 1.125 | 1.021 | 0.929 | 0.835 | 0.737 | 0.642 | 0.567 | 0.506 | 0.45
323.15 K | 0.965 | 0.878 | 0.791 | 0.718 | 0.639 | 0.567 | 0.5 | 0.446 | 0.396

Source: the CheMixHub viscosity set
